# Source: patent US20260158026A1, “METHODS OF TREATING CANCER AND COMPOSITIONS FOR THE SAME” (MARSAL THERAPEUTICS, INC., priority 2022, published 2026)
# Read-outs that look alike come from different tables or passages of the source.
# Experiments:
# GBM cells [1] = test: Combination with FDA approved oncology drugs, cell viability; type: cell-based, human; conditions: combination with Compound 1, FIGS. 12A-C
# From the text: The FDA approved oncology drugs included temozolomide (TMZ), ixabepilone, cladribine, enzalutamide, omacetaxine mepesuccinate, epothilones, erubulin, and latrunculin.
# [2] = system: Breast Cancer (MDA-MB-231); test: IC50 measurement, cell viability assay; type: cell-based; conditions: Homo sapiens, MDA-MB-231, 96 h, after 4 days of treatment
# Method: (§1) Negative (100% DMSO) and positive (10 mM Staurosporine in DMSO) controls were placed in columns 10 and 11, respectively. The plate was diluted with 180 μL growth media/well and 5 μL of the resulting compound solution was transferred in quadruplicate to the assay plate. For the assay plate, 3,000 cells/well were plated in a 384 well clear bottom μL plate and allowed to adhere for at least 3 hours. […] The plates were incubated for 1, 2, 3, or 4 days. ATP levels were measured after incubation. Based on the results of Example 1, Compound 1 was selected for further evaluation.
# Colon Cancer (HT-29) = test: IC50 measurement, cell viability assay; type: cell-based; conditions: Homo sapiens, HT-29, 96 h, after 4 days of treatment
# Method: as §1
# Lung Cancer (H1299) = test: IC50 measurement, cell viability assay; type: cell-based; conditions: Homo sapiens, NCI-H1299, 96 h, after 4 days of treatment
# Method: as §1
# [3] = system: Pancreatic Cancer (MIA-PACA); test: IC50 measurement, cell viability assay; type: cell-based; conditions: Homo sapiens, MIA PaCa-2, 96 h, after 4 days of treatment
# Method: as §1
# Patient 1 GBM cells = test: IC50 measurement, cell viability assay; type: cell-based; conditions: Homo sapiens
# Method: as §1
# [4] = system: fibroblast cells from patient 1; test: IC50 measurement, cell viability assay; type: cell-based; conditions: Homo sapiens
# Method: as §1, with “incubation.” for “incubation. Based on the results of Example 1, Compound 1 was selected for further evaluation.”
# [5] = system: GBM cells isolated from an additional five patients; test: IC50 measurement, cell viability assay; type: cell-based; conditions: Homo sapiens, FIG. 2
# Method: as §1, with “incubation.” for “incubation. Based on the results of Example 1, Compound 1 was selected for further evaluation.”
# Serial dilutions in FIG. 2 show the effect of Compound 1 on GBM cells isolated from an additional five patients.
# [6] = system: Patient-derived GBM cells; test: Long-term exposure assay; type: cell-based, human; conditions: 0.1 μM, incubated for 21 days, FIG. 3A
# Method: Long-term Exposure Assay: Measurements for long-term assays were performed on days 4, 8, 14, and 21. 3,000 cells/well were plated in a 384 well plate (for day 4 assay), a 96 well plate (for day 8 assay), a 24 well plate (for day 14 assay), a 6 well plate (for day 21 assay), or a 10 cm plate (for day 30 assay) and allowed to adhere as above. Following this, media was exchanged to DMEM (without FBS+1× Penstrep) with either DMSO as control treatment or compound (at final concentration of 0.1 μM or 5 μM). Every four days, media was replaced with fresh DMEM (without FBS+1×Penstrep) comprising DMSO (control) or compound. At the end of days 4, 8, 14, and 21 cell viability assays were performed.
# Patient-derived GBM cells were treated with Compound 1 at concentrations of 5 μM or 0.1 μM and incubated for 21 days. Fibroblasts were used as a control (FIG. 3B).
# fibroblasts = test: Long-term exposure assay; type: cell-based, human; conditions: 0.1 μM, 21 days, FIG. 3B
# Glioma cells = test: Cytotoxicity and apoptosis assays (ApoTox-Glo); type: cell-based, human
# [7] = system: glioma cells from patient 1; test: Immunostaining with Caspase 3 antibody (apoptosis marker); type: cell-based, human; conditions: compared to positive control staurosporin, FIGS. 4C and 4D
# [8] = system: glioma cells from patient 1; test: Immunostaining and quantification of Annexin V positive cells; type: cell-based, human
# fibroblast control = test: as above; type: cell-based, human
# GBM cells [9] = test: Mitochondrial membrane potential (JC1 staining); type: cell-based, human; conditions: CCCP positive control, DMSO negative control; 24, 48, 72 hrs, FIGS. 5A and 5B
# Method: FIG. 5B is a bar graph of JC1 staining for mitochondrial depolarization in GMB cells treated with DMSO (negative control), CCCP (positive control), or Compound 1 (CMPD1) at 24 hrs, 48 hrs, and 72 hrs according to Example 6.
# GBM cells were treated with Compound 1, carbonyl cyanide m-chlorophenyl hydrazine (CCCP; positive control), or DMSO (negative control) and the mitochondrial membrane potential (indicative of functional status of the GBM cells) was measured and analyzed.
# GBM cells [10] = test: Mitochondria vacuolization by Transmission Electron Microscopy; type: cell-based, human; conditions: 2.5 μM, 5 μM, or 10 μM; 3, 6, 12, 24, and 48 hours
# Method: Referring to FIGS. 6A and 6B, the GBM cells were analyzed via Transmission Electron (TEM) Microscopy after 3, 6, 12, 24, and 48 hours of incubation.
# [11] = system: patient-derived glioma cells; test: siRNA knockdown of CRISPR-Cas9 hits followed by IC50 measurement; type: cell-based, human
# Method: FIG. 7C is a graph of cell viability after treatment with Compound 1 for certain targets identified in FIG. 7B in patient-derived glioma cells followed by measurement of IC50 post-treatment with serial dilution of Compound 1 according to Example 8.
# (§2) With reference to Step I in FIGS. 7A and 7B, whole genome CRISPR-Cas9 studies (B. Schmierer, Mol Systems Biol., 13, 945 (2017)) were carried out to identify potential targets that could explain the effect produced by Compound 1 on cancer cells. […] With reference to Step II in FIG. 7A and FIGS. 8A and 8B, after the CRISPR screening analysis was complete, the expression of identified hits were confirmed in GB cells as shown in FIG. 8A. The binding of Compound 1 to the identified hits was established via a pull-down assay using biotin labeled Compound 1 (FIG. 8B).
# [12] = system: identified hits (BMPR1A, UTP23, ARHGAP33, ITSN1); test: Pull-down assay using biotin labeled Compound 1; type: binding, human; conditions: pull-down with biotin labeled Compound 1, FIG. 8B
# Method: as §2
# [13] = system: GBM cancer cell line xenograft; test: GBM xenograft stereotactically implanted into the brain of nude mice; type: in vivo; conditions: oral administration, versus mice not treated
# From the text: A GBM cancer cell line was xenografted into 8-week old male nude mice and the tumor was allowed to develop for four weeks. The GBM cells were stereotactically implanted into the brain and allowed to grow for four weeks. After four weeks, treatment with Compound 1 via oral administration was started (Day 1). The mice were allowed to live until the ethical endpoint of the study was reached. Body weight and activity of animals were monitored continuously.
# [14] = previous clinical trials; cited from earlier work
structure (smiles),measurement,setting,value
Nc1nc(Cl)nc2c1ncn2[C@H]1C[C@H](O)[C@@H](CO)O1 [cladribine],"Cell viability, Compound 1 in the additional presence of the named drug",GBM cells [1],statistically significant decreases in cell viability
CNC(=O)c1ccc(N2C(=S)N(c3ccc(C#N)c(C(F)(F)F)c3)C(=O)C2(C)C)cc1F [enzalutamide],"Cell viability, Compound 1 in the additional presence of the named drug",GBM cells [1],statistically significant decreases in cell viability
"Fc1ccc(C(OCCN2CCN(CCCc3ccccc3)CC2)c2ccc(F)cc2)cc1 [Compound 1, vanoxerine]",IC50,[2],2300 nM
same,IC50,Colon Cancer (HT-29),2400 nM
same,IC50,Lung Cancer (H1299),2100 nM
same,IC50,[3],2400 nM
same,IC50,"Patient 1 GBM cells; 96 h, after 4 days of treatment, cell viability assay, read-out: Mean IC50, Brain Cancer (Patient 1 GBM cells)",2200 nM
same,IC50,"Patient 1 GBM cells; Glioma cell, 96 h, serial dilution, 4 days of incubation, FIG. 1B, read-out: IC50 for glioma cells from patient 1",4900 nM
same,IC50,"Patient 1 GBM cells; various cell passages, FIG. 1C, range printed from about 300 nM to about 6.4 μM, read-out: IC50 for GBM cells, lower end of range over cell passages",~300 nM
same,IC50,"Patient 1 GBM cells; various cell passages, FIG. 1C, range printed from about 300 nM to about 6.4 μM, read-out: IC50 for GBM cells, upper end of range over cell passages",~6400 nM
same,IC50,"[4]; 96 h, serial dilution, 4 days of incubation, FIG. 1B, read-out: IC50 for fibroblast cells from patient 1",13800 nM
same,IC50,"[4]; various cell passages, FIG. 1D, read-out: IC50 for the fibroblasts, range over cell passages",16000 to 41000 nM
same,IC50,[5],4720 nM
same,"Effect on GBM cells, long-term exposure",[6],eliminated the GBM cells
same,"Cytotoxicity towards fibroblasts, long-term exposure",fibroblasts,without exhibiting cytotoxicity
same,Apoptosis (ApoTox-Glo),Glioma cells,apoptosis was not initiated
same,Cytotoxicity (ApoTox-Glo),Glioma cells,immense cytotoxicity
same,"Apoptosis positive cells, Caspase 3 immunostaining",[7],did not produce apoptosis positive cells
same,"Apoptosis positive cells, Annexin V",[8],do not produce more apoptosis positive cells
same,"Apoptosis positive cells, Annexin V",fibroblast control,do not produce more apoptosis positive cells
same,Mitochondrial membrane potential,GBM cells [9],depolarization of mitochondria in a manner similar to CCCP
same,Vacuolization of mitochondria (TEM),GBM cells [10],induced vacuolization of mitochondria
same,IC50 after knockdown of ARHGAP33 versus controls,"[11]; siRNA knockdown of ARHGAP33, FIG. 7C",higher IC50 values
same,IC50 after knockdown of BMPR1A versus controls,"[11]; siRNA knockdown of BMPR1A, FIG. 7C",higher IC50 values
same,IC50 after knockdown of ITSN1 versus controls,"[11]; siRNA knockdown of ITSN1, FIG. 7C",higher IC50 values
same,Binding to the identified hits,[12],established
same,Physical activity,[13],increased physical activity
same,Tumor size,[13]; FIG. 9,reduction in tumor size
same,Bodyweight,[13]; FIG. 10,reduced loss in bodyweight
same,Life span,[13]; FIG. 11,increased life span
same,Safety when administered to humans,[14],establishing its safety
C/C(=C\c1csc(C)n1)[C@@H]1C[C@@H]2O[C@]2(C)CCC[C@H](C)[C@H](O)[C@@H](C)C(=O)C(C)(C)[C@@H](O)CC(=O)N1 [ixabepilone],"Cell viability, Compound 1 in the additional presence of the named drug",GBM cells [1],statistically significant decreases in cell viability
